Experimental data published in patent US9409905B2, “Antibacterial compounds and methods for use” (PTC THERAPEUTICS, INC., priority 2011, dated 2016).
In brackets after ≈: the same amount, converted by molar mass.

Columns and labels:
[1] = system: Pseudomonas aeruginosa (P. aeruginosa) 27853; assay: Antibacterial activity, MIC (Table 5); assay type: cell-based; conditions: P. aeruginosa 27853, read-out: MIC, 27853
In short: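 Compounds are serially diluted in broth and inoculated with the organism. Growth is then inspected macroscopically, and the lowest concentration showing none is taken as the MIC (μg/mL).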

[2] = system: E. coli 25922; assay: Antibacterial activity, microbroth dilution MIC (Table 1); assay type: cell-based, Escherichia coli; conditions: Escherichia coli; microbroth dilution; control Gram-negative E. coli 25922 strain; read-out: MIC, 25922
In short: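 Values are MICs (μg/mL): the smallest drug amount at which macroscopically visible bacterial growth is absent under assay conditions, from a microdilution method in broth.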

[3] = system: Staphylococcus aureus (S. aureus) 29213; assay: as above; assay type: cell-based; conditions: microbroth dilution, Gram-positive S. aureus 29213, read-out: MIC, 29213
In short: (§1)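 Potency is reported as minimum inhibitory concentration in μg/mL, determined by broth microdilution as the lowest level of compound that stops growth visible to the eye.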

[4] = system: Escherichia coli (E. coli) BAS849; assay: as above; assay type: cell-based; conditions: microbroth dilution, super sensitive Gram-negative E. coli BAS849, read-out: MIC, BAS849
In short: as §1

[5] = system: E. coli ELZ4251; assay: Antibacterial activity, MIC, multi-drug resistant clinical isolate (Table 3); assay type: cell-based; conditions: Escherichia coli
In short: (§2)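 Microbroth dilution. Endpoint: absence of macroscopically visible growth. Value = MIC, μg/mL.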

[6] = system: E. coli ELZ4000; assay: as above; assay type: cell-based; conditions: Escherichia coli, ELZ4000, read-out: MIC ELZ4000
In short: as §2

[7] = system: Haemophilus influenzae (H. influenzae) 49247; assay: Antibacterial activity, MIC (Table 6); assay type: cell-based
Source text: (§3) The antibacterial activity from a microbroth dilution method may be presented as the minimum inhibitory concentration (MIC in μg/mL). The MIC value is the lowest concentration of drug which prevents macroscopically visible growth under test conditions.
(§4) Antibacterial activity of test compounds against the Gram-negative bacteria Haemophilus influenzae (H. influenzae) 49247 is shown in Table 6, Moraxella catarrhalis (M. catarrhalis) 25238 is shown in Table 7 and Neisseria meningitidis (N. meningitidis) 13090 is shown in Table 8.

[8] = system: E. coli LZ3111; assay: Antibacterial activity, MIC, quinolone resistant strain (Table 2); assay type: cell-based; conditions: Escherichia coli, LZ3111, read-out: MIC LZ3111
In short: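 Strain carries mutations conferring high-level quinolone resistance; tested by microbroth dilution, MIC recorded in μg/mL as lowest concentration preventing visible growth.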

[9] = system: Neisseria meningitidis (N. meningitidis) 13090; assay: Antibacterial activity, MIC (Table 8); assay type: cell-based
Source text: as §3, §4

[10] = system: Klebsiella pneumoniae (K. pneumoniae) 35657; assay: Antibacterial activity, MIC (Table 4); assay type: cell-based; conditions: K. pneumoniae 35657, read-out: MIC, 35657
In short: (§5)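 Broth microdilution; MIC (μg/mL) = lowest concentration with no macroscopically visible growth. Resistant strains: multi-drug resistant clinical isolates.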

[11] = system: Acinetobacter baumannii (A. baumannii) BAA747; assay: Antibacterial activity, MIC (Table 4); assay type: cell-based; conditions: A. baumannii BAA747, read-out: MIC, BAA747
In short: as §5

[12] = system: Moraxella catarrhalis (M. catarrhalis) 25238; assay: Antibacterial activity, MIC (Table 7); assay type: cell-based
Source text: as §3, §4

[13] = system: K. pneumoniae MXX1232; assay: Antibacterial activity, MIC, resistant strain (Table 4); assay type: cell-based; conditions: Klebsiella pneumoniae, MXX1232; resistant K. pneumoniae MMX1232, multi-drug resistant clinical isolate; read-out: MIC, MMX1232
In short: as §5

SMILES | MIC [1] [µg/mL] | MIC [2] [µg/mL] | MIC [3] [µg/mL] | MIC [4] [µg/mL] | MIC [5] [µg/mL] | MIC [6] [µg/mL] | MIC [7] [µg/mL] | MIC [8] [µg/mL] | MIC [9] [µg/mL] | MIC [10] [µg/mL] | MIC [11] [µg/mL] | MIC [12] [µg/mL] | MIC [13] [µg/mL]
CCc1cc(C(=O)O)c(=O)[nH]c1-c1ccc2c(c1)CCCN2C [Cpd 1, 5-ethyl-6-(1-methyl-1,2,3,4-tetrahydroquinolin-6-yl)-2-oxo-1,2-dihydropyridine-3-carboxylic acid] | 12.5 to 150 (≈ 40 to 480 µM) | 1 to 3.5 (≈ 3.2 to 11.2 µM) | 12.5 to 150 (≈ 40 to 480 µM) | < 1 | 12.5 to 150 (≈ 40 to 480 µM) | 12.5 to 150 (≈ 40 to 480 µM) | < 1 | 12.5 to 150 (≈ 40 to 480 µM) | < 1 | – | – | – | –
CC(C)c1cc(C(=O)O)c(=O)[nH]c1-c1ccc2c(ccn2C)c1 [Cpd 33, 5-isopropyl-6-(1-methyl-1H-indol-5-yl)-2-oxo-1,2-dihydropyridine-3-carboxylic acid] | – | 3.5 to 12.5 (≈ 11.3 to 40.3 µM) | 12.5 to 150 (≈ 40.3 to 483 µM) | < 1 | 12.5 to 150 (≈ 40.3 to 483 µM) | 12.5 to 150 (≈ 40.3 to 483 µM) | < 1 | 12.5 to 150 (≈ 40.3 to 483 µM) | < 1 | – | – | – | –
C=CCNCc1cc2cc(-c3[nH]c(=O)c(C(=O)O)c(O)c3CC)ccc2n1C.Cl [Cpd 243, 6-(2-((allylamino)methyl)-1-methyl-1H-indol-5-yl)-5-ethyl-4-hydroxy-2-oxo-1,2-dihydropyridine-3-carboxylic acid hydrochloride] | 3.5 to 12.5 | < 1 | 3.5 to 12.5 | < 1 | 1 to 3.5 | 3.5 to 12.5 | < 1 | 1 to 3.5 | < 1 | < 1 | < 1 | < 1 | 12.5 to 150
CCc1cc(C(=O)O)c(=O)[nH]c1-c1ccc2c(c1)cc(C)n2C [Cpd 37, 6-(1,2-dimethyl-1H-indol-5-yl)-5-ethyl-2-oxo-1,2-dihydropyridine-3-carboxylic acid] | – | < 1 | 1 to 3.5 (≈ 3.22 to 11.3 µM) | < 1 | 12.5 to 150 (≈ 40.3 to 483 µM) | 12.5 to 150 (≈ 40.3 to 483 µM) | < 1 | 12.5 to 150 (≈ 40.3 to 483 µM) | < 1 | – | – | – | –
CCc1cc(C(=O)O)c(=O)[nH]c1-c1ccc2c(c1)cc(CO)n2C [Cpd 39, 5-ethyl-6-(2-(hydroxymethyl)-1-methyl-1H-indol-5-yl)-2-oxo-1,2-dihydropyridine-3-carboxylic acid] | – | 1 to 3.5 (≈ 3.06 to 10.7 µM) | 3.5 to 12.5 (≈ 10.7 to 38.3 µM) | < 1 | 12.5 to 150 (≈ 38.3 to 460 µM) | 12.5 to 150 (≈ 38.3 to 460 µM) | < 1 | 12.5 to 150 (≈ 38.3 to 460 µM) | < 1 | – | – | – | –
Cn1ccc2cc(-c3[nH]c(=O)c(C(=O)O)cc3C3CC3)ccc21 [Cpd 35, 5-cyclopropyl-6-(1-methyl-1H-indol-5-yl)-2-oxo-1,2-dihydropyridine-3-carboxylic acid] | – | 1 to 3.5 (≈ 3.24 to 11.4 µM) | 12.5 to 150 (≈ 40.5 to 486 µM) | < 1 | 12.5 to 150 (≈ 40.5 to 486 µM) | 12.5 to 150 (≈ 40.5 to 486 µM) | < 1 | 12.5 to 150 (≈ 40.5 to 486 µM) | < 1 | – | – | – | –
CCc1c(-c2ccc3c(ccn3CC)c2)[nH]c(=O)c(C(=O)O)c1O [Cpd 10, 5-ethyl-6-(1-ethyl-1H-indol-5-yl)-4-hydroxy-2-oxo-1,2-dihydropyridine-3-carboxylic acid] | – | 3.5 to 12.5 (≈ 10.7 to 38.3 µM) | 1 to 3.5 (≈ 3.06 to 10.7 µM) | < 1 | 12.5 to 150 (≈ 38.3 to 460 µM) | 12.5 to 150 (≈ 38.3 to 460 µM) | < 1 | 12.5 to 150 (≈ 38.3 to 460 µM) | < 1 | – | – | – | –
